Source: article PMC12730060, “Design, Synthesis, and Antimalarial Evaluation of New Spiroacridine Derivatives” (Antibiotics, 2025)
Read-outs that look alike come from different tables or passages of the source.

Key:
[1] = test system: P. falciparum 3D7-GFP (chloroquine-sensitive); experiment: IC50 determination against asexual blood stages, flow cytometry (GFP); type: cell-based; conditions: Plasmodium falciparum, 3D7, 72 h, read-out: IC50 (μM) 3D7-GFP
Experimental: (§1) Firstly, to prepare the samples for in vitro assays, each compound was dissolved in DMSO (Sigma-Aldrich®, Merck, Darmstadt, Germany), obtaining a solution of 5 mM, from which two other solutions, at 100 μM and 10 μΜ were prepared through dilution with RPMI-1640 medium (Invitrogen™, Carlsbad, CA, USA), supplemented with AlbuMAXII (Invitrogen™, Carlsbad, CA, USA). […] These cultures were obtained through BEI Resources, NIAID, NIH (MR4, ATCC®, Manassas, VA, USA), contributed by Andrew M. Talman, Robert E. Sinden, David Walliker, and Didier Ménard. The parasites were cultivated with 5% hematocrit at 37 °C and an atmosphere enriched with 5% of CO2 [54].
(§2) In order to accomplish this, unsynchronized cultures of 3D7-GFP, Dd2, and MRA-1240 were incubated at 1.2% hematocrit and 1.0% parasitemia with serial three-fold dilutions of the compounds, ranging from 10,000 nM to 0.17 nM, in 96-well flat-bottom plates for 72 h at 37 °C and 5% CO2. Parasite growth was quantified by flow cytometry (CytoFLEX, Beckman Coulter Life Sciences, Indianapolis, IN, USA) using GFP detection in a 96-well plate reader (Fl-1 channel) for the 3D7-GFP strain. The others (Dd2 and MRA-1240) were stained with SYBR Green I (20×), which is also detected at 488 nm. Data analysis was performed with FlowJo v10 software (FlowJo LLC, Ashland, OR, USA), and the half-maximal inhibitory concentrations (IC50) were calculated using GraphPad Prism 5 (trial version), with mean IC50 values obtained from at least two independent experiments, each conducted in triplicate.
(§3) All statistical analyses and graphical representations were performed using the GraphPad Prism 8.0 software package. Dose–response curves were generated by fitting the data to a nonlinear regression model [log(inhibitor) vs. response—variable slope]. […] The IC50 values were obtained from the fitted curves. Each experiment was carried out in triplicate and repeated independently, and results were expressed as mean ± standard deviation.

[2] = test system: P. falciparum Dd2 (chloroquine-resistant); experiment: microbe, parasite or virus in culture; type: cell-based; conditions: Plasmodium falciparum, DD2, 72 h, read-out: IC50 (μM) Dd2
Experimental: as §1, §2, §3

[3] = test system: P. falciparum MRA-1240 (artemisinin-resistant); experiment: microbe, parasite or virus in culture; type: cell-based; conditions: Plasmodium falciparum, 72 h, read-out: IC50 (μM) MRA-1240
Experimental: as §1, §2, §3

[4] = test system: monkey kidney cells (Vero E6); experiment: Cytotoxicity, MTT assay; type: cell-based; conditions: for IC50: Primates, read-out: IC50 (μM) Vero E6
Experimental: In the following stages, to assess the selectivity of compounds against P. falciparum over mammalian cells, the cytotoxicity against monkey kidney cells (Vero E6) was determined through MTT assay after 72h of treatment. Also, the selectivity index (SI) of compounds was calculated by the ratio between a compound’s cytotoxicity against Vero E6 cells and its antiplasmodial activity (SI = Vero E6 IC50/P. falciparum IC50).
For this, monkey kidney cells (Vero E6) were seeded at a density of 5 × 10^3 cells/mL in 96-well plates and allowed to adhere for 6 h. Vero E6 cell line was obtained from the Cell Bank of Rio de Janeiro and cultured in DMEM media (Dulbecco’s Modified Eagle Medium) plus 10% inactivated fetal bovine serum (FBS) and 1% penicillin–streptomycin. Treatments were performed by adding 100 μL of medium solutions with test drugs, resulting in concentrations ranging from 12.5 to 100 µM (DMSO 1%, v/v). After 72 h of incubation at 37 °C and under 5% of CO2, the cultures were incubated with MTT at 0.5 mg/mL for 2 h. After this, the formazan crystals were dried in room temperature and dissolved in DMSO. Cell viability was determined by measuring the absorbance at 570 nm (Absorbance microplate reader EL800, BioTek, Winooski, VT, USA), and control wells containing DMSO at 1% were considered as 100% cell viability.

erythrocytes = test system: erythrocytes; set-up: method as in PMID 40572185; conditions: no cytotoxicity against erythrocytes up to this concentration; cited from earlier work
P. falciparum 3D7-GFP = experiment: Screening at fixed concentration against unsynchronized asexual blood stages, flow cytometry (GFP); type: cell-based; conditions: Plasmodium falciparum, read-out: Inhibition (%) 10 μΜ
Experimental: In order to assess the antiplasmodial activity of the compounds, a screening with fixed concentrations at 10 μM was performed against unsynchronized cultures of the asexual blood stages of P. falciparum 3D7HT-GFP (hereafter referred to as 3D7-GFP). […] The JR intermediates were also evaluated in this assay in order to assess the relevance of the spiroacridine scaffold.
Firstly, to prepare the samples for in vitro assays, each compound was dissolved in DMSO (Sigma-Aldrich®, Merck, Darmstadt, Germany), obtaining a solution of 5 mM, from which two other solutions, at 100 μM and 10 μΜ were prepared through dilution with RPMI-1640 medium (Invitrogen™, Carlsbad, CA, USA), supplemented with AlbuMAXII (Invitrogen™, Carlsbad, CA, USA). In parallel, the parasite cultures used in the in vitro assays include the following P. falciparum strains: 3D7-GFP (MRA-1029, MR4, ATCC®, Manassas, VA, USA, chloroquine-sensitive, expressing Green Fluorescent Protein), Dd2 (MRA-150, ATCC®, Manassas, Virgínia, chloroquine-resistant), and IPC5202 (MRA-1240, ATCC®, Manassas, VA, USA, artemisinin-resistant). These cultures were obtained through BEI Resources, NIAID, NIH (MR4, ATCC®, Manassas, VA, USA), contributed by Andrew M. Talman, Robert E. Sinden, David Walliker, and Didier Ménard. The parasites were cultivated with 5% hematocrit at 37 °C and an atmosphere enriched with 5% of CO2 [54].
Then, to assess the antiplasmodial activity of the compounds, a screening assay was initially performed against the P. falciparum 3D7-GFP strain. For this, unsynchronized cultures were incubated in a 96-well flat-bottom plate at 1.2% hematocrit and 1.0% parasitemia, in the presence and absence of 1 μM and 10 μM of each compound, for 72 h at 37 °C and 5% CO2. […] Parasite growth was determined by flow cytometry (CytoFLEX, Beckman Coulter Life Sciences, Indianapolis, IN, USA) with a 96-well plate reader, using Fl-1 with an excitation wavelength of 488 nm for GFP detection. The flow cytometry data were analyzed with FlowJo v10 software (FlowJo LLC, Ashland, OR, USA) to calculate the percentage inhibition of compounds.

mice = test system: mice; set-up: method as in PMID 31861795; conditions: acute toxicity, OECD guidelines; cited from earlier work
P. falciparum 3D7 = conditions: read-out: potency against P. falciparum 3D7; cited from earlier work
P. falciparum W2 = test system: P. falciparum W2; set-up: method as in PMID 30366283; conditions: read-out: IC50 against P. falciparum W2; cited from earlier work
[5] = Vero C1008, 72 h, MTT, 12.5 to 100 µM

SMILES | IC50 [1] | IC50 [2] | IC50 [3] | inhibition at 10 µM (P. falciparum 3D7-GFP; 3D7, 72 h) | also measured
N#CC1=CC2(c3ccccc3Nc3ccccc32)N(/N=C/c2ccccc2)C1=O [AMTAC-01] | 2.11 ± 0.6 µM | 1.37 ± 0.46 µM | 1.66 ± 0.08 µM | – | IC50 [4, 5]: > 100 µM; half-maximal hemolytic concentration (HC50) (erythrocytes): > 400 µM
COc1ccc(/C=N/N2C(=O)C(C#N)=CC23c2ccccc2Nc2ccccc23)cc1 [AMTAC-02] | 3.19 ± 0.49 µM | 3.12 ± 0.34 µM | 4.01 ± 0.17 µM | – | IC50 [4, 5]: > 100 µM; half-maximal hemolytic concentration (HC50) (erythrocytes): > 400 µM
N#CC1=CC2(c3ccccc3Nc3ccccc32)N(/N=C/c2ccc(Cl)cc2)C1=O [AMTAC-06] | – | – | – | 62.4 ± 8.9% | –
COc1cc(/C=N/N2C(=O)C(C#N)=CC23c2ccccc2Nc2ccccc23)cc(OC)c1OC [AMTAC-17] | 3.28 ± 0.49 µM | 3.29 ± 0.38 µM | 4.09 ± 0.05 µM | – | IC50 [4, 5]: > 100 µM; estimated Median Lethal Dose (LD50) (mice): greater than 5000 mg/kg
N#CC1=CC2(c3ccccc3Nc3ccccc32)N(/N=C/c2ccnc3ccccc23)C1=O [AMTAC-21, (E)-5′-oxo-1′-((quinolin-4-ylmethylene)amino)-1′,5′-dihydro-10H-spiro[acridine-9,2′-pyrrole]-4′-carbonitrile] | 3.78 ± 0.18 µM | 3.99 ± 0.23 µM | 4.07 ± 0.27 µM | – | IC50 [4, 5]: > 100 µM
N#CC1=CC2(c3ccccc3Nc3ccccc32)N(/N=C/c2c[nH]c3ccccc23)C1=O [AMTAC-22, (E)-1′-(((1H-indol-3-yl)methylene)amino)-5′-oxo-1′,5′-dihydro-10H-spiro[acridine-9,2′-pyrrole]-4′-carbonitrile] | 3.01 ± 0.52 µM | 2.34 ± 0.11 µM | 2.88 ± 0.3 µM | – | IC50 [4, 5]: > 100 µM; reduction in cell viability ([4]; at all concentrations evaluated (12.5–100 μM), 72 h): 15–20%
COc1cc(/C=N/N2C(=O)C(C#N)=CC23c2ccccc2Nc2ccccc23)cc(OC)c1O [AMTAC-24, (E)-1′-((4-hydroxy-3,5-dimethoxybenzylidene)amino)-5′-oxo-1′,5′-dihydro-10H-spiro[acridine-9,2′-pyrrole]-4′-carbonitrile] | – | – | – | 66.8 ± 10.8% | –
CCN(CC)CCCC(C)Nc1ccnc2cc(Cl)ccc12 (stereo not drawn) [CQ, chloroquine, reference compound] | 0.02 ± 0.01 µM | 0.26 ± 0.09 µM | 0.19 ± 0.07 µM | – | inhibition at 10 µM (P. falciparum 3D7-GFP; 72 h): 94.34 ± 0.54%; IC50 ([4]; Vero C1008, 72 h): > 100 µM
N#CCC(=O)N/N=C/c1ccc(Cl)cc1 [JR-06, (E)-N’-(4-chlorobenzylidene)-2-cyanoacetohydrazide] | – | – | – | 12.4 ± 1% | –
N#CCC(=O)N/N=C/c1ccccc1 [JR-09] | – | – | – | 14.8 ± 0.4% | –
COc1cc(/C=N/NC(=O)CC#N)cc(OC)c1OC [JR-10, (E)-2-cyano-N’-(3,4,5-trimethoxybenzylidene)acetohydrazide] | – | – | – | 12.6 ± 1.4% | –
COc1ccc(/C=N/NC(=O)CC#N)cc1 [JR-11, (E)-2-cyano-N’-(4-methoxybenzylidene)acetohydrazide] | – | – | – | 13.4 ± 1.4% | –
N#CCC(=O)N/N=C/c1ccnc2ccccc12 [JR-18] | – | – | – | 14.7 ± 7.2% | –
N#CCC(=O)N/N=C/c1c[nH]c2ccccc12 [JR-19] | – | – | – | 16.8 ± 5% | –
COc1cc(/C=N/NC(=O)CC#N)cc(OC)c1O [JR-28, (E)-2-cyano-N’-(4-hydroxy-3,5-dimethoxybenzylidene)acetohydrazide] | – | – | – | 5.5 ± 11.5% | –
CC(=O)N(O)CCCCCNC(=O)CCC(=O)N(O)CCCCCNC(=O)CCC(=O)N(O)CCCCCN [deferoxamine] | – | – | – | – | IC50 (P. falciparum 3D7): 27.6 µM
COc1cc(NC(C)CCCN)c2ncccc2c1 (stereo not drawn) [primaquine] | – | – | – | – | IC50 (P. falciparum W2): 1.7 µM; IC50 (P. falciparum 3D7): 9.4 µM
COc1cc(C)c2c(Oc3cccc(C(F)(F)F)c3)c(OC)cc(NC(C)CCCN)c2n1 (stereo not drawn) [tafenoquine] | – | – | – | – | IC50 (P. falciparum 3D7): 1.7 µM
